Measured values taken from PMC10318527, “Utilization of dietary mixed-linkage β-glucans by the Firmicute Blautia producta” (The Journal of Biological Chemistry, 2023).
“Also recorded” adds a separate entry of the source.

Key:
BpGH16MLG = assay: Initial screening of BpGH16MLG against substrates (TLC); format: biochemical, Blautia producta ATCC 27340; settings: pH 5.7, 37 °C, 2 h
Procedure: After the appropriate incubation time, the reaction was terminated by boiling (5 min), and generated oligosaccharides were analyzed by thin layer chromatography (TLC). Typically, 1 μl of the reaction mixture was used for TLC analysis. TLC analysis was performed on Silica Gel 60 F254 (Merck), and produced sugars were visualized by spraying TLC with 5% H2SO4 in ethanol, followed by heating.

B. producta ATCC 27340 = assay: Growth of B. producta on β-glucans; format: cell-based, Blautia producta ATCC 27340; settings: minimal medium containing 1% glucan
Procedure: Active culture of B. producta and culture conditions were maintained following the recently reported procedure ([31]). Once B. producta grew, cells were centrifuged, and the obtained supernatant was decanted. A pellet of cells was then washed three times with phosphate-buffered saline (PBS) and washed cells were suspended in 2 ml PBS. […] The growth assessment experiments were performed for 96 h, following our recently established protocol ([82]).

BpGH16MLG (BPGH16) = assay: Michaelis-Menten kinetics of BpGH16MLG on β-glucans (DNS assay); format: biochemical, Blautia producta ATCC 27340
Procedure: Then, reactions were terminated by boiling for 5 min. Enzymatic assays were determined with 3,5- dinitrosalicylic acid (DNS) assay ([85]). In brief, 0.05 g Na2SO3 and 1 g DNS were mixed in a 50 ml water-containing reagent bottle and stirred about 6 h using a magnetic stirrer. After that, 200 μl phenol was added and made up to 100 ml. A working solution of DNS was prepared by adding 50 μl glucose (20% (w/v) stock) in prepared 100 ml of reagent mixtures and immediately used for experiments without adding NaOH. 80 μl DNS reagent was added to the reaction mixtures and incubated at 100 °C for 10 min, followed by ice-cooling for 10 min. Consequently, recorded the developed color spectrophotometrically at 575 nm ([85]). A standard curve generated by different concentrations of maltose was used for determining released reducing sugars in each case.

B. producta ΔSBP = assay: Growth of B. producta ΔSBP mutant on barley β-glucan; format: cell-based, Blautia producta; settings: minimal medium containing 1% barley β-glucan
Procedure: The pBS423-ΔrepA- Δsbp was constructed by inserting 905 bp 5' and 1151 bp 3' flanking regions but lacking 1.2 kb core region of BpSBPMLG. It was inserted between Pst1 sites of the vector. GenScript Biotech (Singapore) PTE LTD carried out synthesis of the 2.2 kb flanking region and insertion into pBS423-ΔrepA. Competent cells of B. producta were prepared after inoculating 1 % primary culture into 300 ml GAM containing glucose (0.2%), sucrose (0.5 M), and glycine (1%). It was incubated until A600 reached 0.5-0.7 at 37 °C under anaerobic conditions. Afterward, cultures were transferred into 50 ml centrifuge tubes and centrifuged at 3000 × g for 20 min. The supernatant was discarded, and pellets were washed three times with washing solution (0.5 M sucrose and 10% glycerol) and stored at -80°C in aliquots of 50 µl.
The first cross-over event for knocking out was achieved by integrating 0.2 to 1 µg pBS423-ΔrepA- Δsbp in 50 µl competent cells of B. producta through electroporation using a condition of 25 µF, 2.0 kV, and 200 Ω. Gene Pulser Xcell (Bio-Rad Laboratories, Hercules, CA, USA) was used for this purpose. The treated cells were instantly mixed with 1 ml anaerobically pre-incubated GAM medium containing 0.2 % glucose, 0.5 M sucrose, 1 % glycine, 20 mM MgCl2.6H2O, and 2 mM CaCl2. […]

R. faecis = assay: Growth of R. faecis on barley β-glucan; format: cell-based, Roseburia faecis; settings: minimal medium with 1% barley β-glucan, no BpGH16MLG
Procedure: […] JCM 31261, B. pseudocatenulatum JCM 1200^T, B. adolescentis JCM 1275^T, B. coccoides JCM 1395^T, B. bifidum JCM 1254, and A. caccae JCM 13470^T were used for bacterial mono-culture experiments. […] About 5 μl glycerol stock was initially inoculated to 5 ml of GAM for the primary culture of these strains. […] The experiment was set up on 300 μl flat-bottomed 96-well microtiter plates. Reading was taken every interval of 8 h at 600 nm on a spectrophotometer.

[1] = native BPGH16, DNS assay, pH 5.7, 37 °C

Barley β-glucan
activity of BpGH16MLG on substrate (initial screening) (BpGH16MLG): did cleave | growth of B. producta on the glucan (B. producta ATCC 27340): showed growth | growth of B. producta on the glucan (B. producta ATCC 27340; listed as barley MLG): able to grow | Km (BpGH16MLG (BPGH16); BpGH16MLG with barley MLG, no unit): 0.22 ± 0.04 | kcat (BpGH16MLG (BPGH16); BpGH16MLG with barley MLG, no unit, in 1/s): 62 ± 1.23 | Km (BpGH16MLG (BPGH16); [1]): 0.22 ± 0.04 mg/mL | kcat (BpGH16MLG (BPGH16); [1]): 62 ± 1.2 s⁻¹ | growth of B. producta ΔSBP compared to wild-type strain (B. producta ΔSBP): significant retardation in growth; also recorded: retarded growth | growth of R. faecis (R. faecis): could not grow
